Molecules are shown by their SMILES.

A word on the IC50: it is the concentration that gives 50% inhibition.

Sequence of His-tagged CRBN-DDB1 complex (Q96SW2 whole entry): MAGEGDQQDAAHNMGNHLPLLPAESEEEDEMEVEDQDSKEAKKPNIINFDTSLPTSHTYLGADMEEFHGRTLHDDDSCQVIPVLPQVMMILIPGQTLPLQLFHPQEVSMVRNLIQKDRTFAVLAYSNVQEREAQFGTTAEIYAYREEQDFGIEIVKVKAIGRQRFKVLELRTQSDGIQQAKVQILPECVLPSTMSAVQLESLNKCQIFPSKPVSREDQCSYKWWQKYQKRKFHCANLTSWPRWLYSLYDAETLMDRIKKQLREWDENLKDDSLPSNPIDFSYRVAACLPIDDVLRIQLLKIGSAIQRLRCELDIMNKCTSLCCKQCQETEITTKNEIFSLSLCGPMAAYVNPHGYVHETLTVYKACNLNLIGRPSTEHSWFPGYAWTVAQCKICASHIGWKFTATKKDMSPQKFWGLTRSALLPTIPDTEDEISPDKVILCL
Sequence of His-tagged CRBN-DDB1 complex (Q16531 whole entry partner): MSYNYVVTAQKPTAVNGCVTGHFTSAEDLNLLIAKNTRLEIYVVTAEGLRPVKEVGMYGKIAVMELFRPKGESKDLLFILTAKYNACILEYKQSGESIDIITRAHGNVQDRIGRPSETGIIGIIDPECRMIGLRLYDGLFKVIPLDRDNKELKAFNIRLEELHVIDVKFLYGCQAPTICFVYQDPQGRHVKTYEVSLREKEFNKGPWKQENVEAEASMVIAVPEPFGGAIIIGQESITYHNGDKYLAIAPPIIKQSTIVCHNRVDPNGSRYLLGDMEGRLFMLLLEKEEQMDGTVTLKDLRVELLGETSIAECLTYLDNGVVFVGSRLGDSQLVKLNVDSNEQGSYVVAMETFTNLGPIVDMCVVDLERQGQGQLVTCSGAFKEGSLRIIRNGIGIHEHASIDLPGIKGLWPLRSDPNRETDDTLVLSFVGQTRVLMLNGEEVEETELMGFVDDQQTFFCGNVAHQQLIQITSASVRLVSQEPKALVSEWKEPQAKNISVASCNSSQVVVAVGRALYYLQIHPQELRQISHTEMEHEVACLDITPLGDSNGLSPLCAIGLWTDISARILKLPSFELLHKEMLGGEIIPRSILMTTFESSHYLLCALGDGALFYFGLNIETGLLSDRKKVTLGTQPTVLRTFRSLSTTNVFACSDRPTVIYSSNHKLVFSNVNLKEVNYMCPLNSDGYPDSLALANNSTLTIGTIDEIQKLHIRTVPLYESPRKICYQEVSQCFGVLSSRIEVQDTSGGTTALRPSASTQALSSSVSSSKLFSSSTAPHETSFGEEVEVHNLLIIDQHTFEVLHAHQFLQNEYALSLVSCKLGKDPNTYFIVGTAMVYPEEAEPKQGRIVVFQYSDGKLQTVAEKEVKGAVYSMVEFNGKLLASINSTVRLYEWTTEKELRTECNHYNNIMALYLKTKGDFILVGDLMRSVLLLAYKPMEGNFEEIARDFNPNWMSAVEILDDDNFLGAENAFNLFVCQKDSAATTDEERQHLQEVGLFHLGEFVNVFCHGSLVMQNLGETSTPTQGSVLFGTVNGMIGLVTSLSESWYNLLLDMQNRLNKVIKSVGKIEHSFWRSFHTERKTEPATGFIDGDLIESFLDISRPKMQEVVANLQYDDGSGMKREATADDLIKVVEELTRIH
Sequence of CRBN-DDB1 (Q96SW2 whole entry): as the sequence (Q96SW2 whole entry) above
Sequence of CRBN-DDB1 (Q16531 whole entry partner): as the sequence (Q16531 whole entry partner) above

One assay concerns the target His-tagged CRBN-DDB1 complex (Homo sapiens, UniProt Q96SW2). The assay is described as follows: Time-Resolved Fluorescence Resonance Energy Transfer (TR-FRET / HTRF) CRBN binding assay, displacement of Cy5-labeled thalidomide. The settings on record: His-CRBN-DDB1, Cy5-thalidomide 8 nM, 1 hour room temperature. A general note: In TR-FRET formats the signal depends on donor and acceptor labels being close together.
In turn, `O=C1Cc2cccc(C(=O)N3CCc4ccccc43)c2C(=O)N1` [Compound I-1, 8-(2,3-Dihydroindole-1-carbonyl)-2,4-dihydroisoquinoline-1,3-dione] gave an IC50 greater than 100 µM.

Regarding `NC(=O)c1ccccc1-c1cccc2c1C(=O)NC(=O)C2` [Compound I-2, 2-(1,3-Dioxo-2,4-dihydroisoquinolin-8-yl)benzamide], the IC50 was greater than 100 µM.

`O=C1Cc2cccc(C(=O)N3CCOc4ccccc43)c2C(=O)N1` [Compound I-3, 8-(2,3-Dihydro-1,4-benzoxazine-4-carbonyl)-2,4-dihydroisoquinoline-1,3-dione]: the IC50 was greater than 100 µM.

`Cc1ccccc1-c1ccc2c(c1)C(=O)NC(=O)C2` [Compound I-4, 7-(2-Methylphenyl)-2,4-dihydroisoquinoline-1,3-dione] returned an IC50 of 30 to 100 µM.

Regarding `O=C1Cc2ccccc2C(=O)N1` [Compound I-5, 2,4-Dihydroisoquinoline-1,3-dione], the IC50 is greater than 100 µM.

`Cc1ncoc1-c1ccc2c(c1)C(=O)NC(=O)C2` [Compound I-6, 7-(4-Methyl-1,3-oxazol-5-yl)-2,4-dihydroisoquinoline-1,3-dione] showed an IC50 greater than 100 µM.

In turn, `O=C1Cc2ccc(Br)cc2C(=O)N1` [Compound I-7, 7-Bromo-2,4-dihydroisoquinoline-1,3-dione] displayed an IC50 of 30 to 100 µM.

The compound `O=C1Cc2cccc(Br)c2C(=O)N1` [Compound I-8, 8-Bromo-2,4-dihydroisoquinoline-1,3-dione] showed an IC50 of 10 to 30 µM.

For the compound `Nc1ccc2c(c1)C(=O)NC(=O)C2` [Compound I-12], the IC50 was less than 10 µM.

In turn, `O=C1CC2(CCN(Cc3ccc(-c4ccccc4)cc3)CC2)CC(=O)N1` [Compound I-346] returned an IC50 greater than 100 µM.

For the compound `O=C1CC2(CCN(Cc3cccc(O)c3)CC2)CC(=O)N1` [Compound I-347], the IC50 was greater than 100 µM.

`O=C1CC2(CCN(C(=O)c3cccs3)CC2)CC(=O)N1` [Compound I-348]: the IC50 is greater than 100 µM.

`Cc1cccc(CN2CCC3(CC2)CC(=O)NC(=O)C3)n1` [Compound I-349]: the 50% inhibitory concentration (IC50) is greater than 100 µM.

`O=C1CC2(CCN(C(=O)c3cccnn3)CC2)CC(=O)N1` [Compound I-350] registered an IC50 greater than 100 µM.

In turn, `O=C1CC2(CCN(C3CCCC3)CC2)CC(=O)N1` [Compound I-351] registered an IC50 greater than 100 µM.

`O=C1CC2(CCN(C(=O)Cc3ccccn3)CC2)CC(=O)N1` [Compound I-352] gave a 50% inhibitory concentration (IC50) greater than 100 µM.

Compound `O=C1CC2(CCN(C(=O)c3cnco3)CC2)CC(=O)N1` [Compound I-353] came in with a half-inhibitory concentration (IC50) greater than 100 µM.

`O=C1CC2(CCN(C(=O)c3c[nH]cn3)CC2)CC(=O)N1` [Compound I-354]: the IC50 was greater than 100 µM.

`COc1ccc(C(=O)N2CCC3(CC2)CC(=O)NC(=O)C3)cn1` [Compound I-355]: the IC50 is greater than 100 µM.

The compound `Cc1ccc(CN2CCC3(CC2)CC(=O)NC(=O)C3)o1` [Compound I-356] showed an IC50 greater than 100 µM.

`O=C1CC2(CCN(CCc3ccccc3)CC2)CC(=O)N1` [Compound I-357]: the IC50 was greater than 100 µM.

Compound `Cc1ncoc1C(=O)N1CCC2(CC1)CC(=O)NC(=O)C2` [Compound I-358] registered an IC50 greater than 100 µM.

On to `O=C1CC2(CCN(C(=O)c3cnccn3)CC2)CC(=O)N1` [Compound I-359], for which the IC50 was greater than 100 µM.

`O=C1CC2(CCN(C(=O)c3ccco3)CC2)CC(=O)N1` [Compound I-360] yielded an IC50 greater than 100 µM.

Compound `O=C1CC2(CCN(C(=O)c3ccc4ccoc4c3)CC2)CC(=O)N1` [Compound I-361] yielded an IC50 greater than 100 µM.

In turn, `O=C1CC2(CCN(C(=O)C3CC3)CC2)CC(=O)N1` [Compound I-362] yielded an IC50 greater than 100 µM.

In the case of `O=C1CC2(CCN(Cc3ccncc3)CC2)CC(=O)N1` [Compound I-363], the IC50 was greater than 100 µM.

`O=C1CC2(CCN(C(=O)c3cnon3)CC2)CC(=O)N1` [Compound I-364] came in with an IC50 greater than 100 µM.

In turn, `Cc1cccc(C(=O)N2CCC3(CC2)CC(=O)NC(=O)C3)c1` [Compound I-365] registered an IC50 greater than 100 µM.

In turn, `O=C1CC2(CCN(C(=O)c3cncnc3)CC2)CC(=O)N1` [Compound I-366] displayed an IC50 greater than 100 µM.

With `O=C1CC2(CCN(C(=O)c3cccc(C(F)(F)F)n3)CC2)CC(=O)N1` [Compound I-367], the half-inhibitory concentration (IC50) is greater than 100 µM.

As to `O=C1CC2(CCN(C(=O)c3ccc4ccccc4c3)CC2)CC(=O)N1` [Compound I-368], the IC50 is greater than 100 µM.

Consider `O=C1CC2(CCN(C(=O)c3ccc(O)cc3)CC2)CC(=O)N1` [Compound I-369], for which the concentration for half-maximal inhibition (IC50) was greater than 100 µM.

`O=C1CC2(CCN(C(=O)c3n[nH]c4ccccc34)CC2)CC(=O)N1` [Compound I-371] returned a 50% inhibitory concentration (IC50) greater than 100 µM.

Regarding `O=C1CC2(CCNCC2)CC(=O)N1` [Compound I-372], the IC50 was greater than 100 µM.

In the case of `O=C1CC2(CCN(C(=O)c3ccnc(Cl)c3)CC2)CC(=O)N1` [Compound I-373], the IC50 is greater than 100 µM.

`O=C1CC2(CCN(Cc3ccccc3)CC2)CC(=O)N1` [Compound I-374] returned a half-maximal inhibitory concentration (IC50) greater than 100 µM.

In turn, `O=C1NC(=O)[C@@H]2CN(C(=O)c3coc(COc4ccc5c(c4)OCO5)n3)C[C@H]12` [Compound I-375] gave an IC50 of 30 to 100 µM.

Compound `Cc1nn(C)c2nc(N3CCC4(CC3)CC(=O)NC(=O)C4)sc12` [Compound I-376] yielded an IC50 of 30 to 100 µM.

Take `O=C1CC2(CCc3cc(Br)ccc32)C(=O)N1` (stereo not shown) [Compound I-377]: the IC50 lay within 30 to 100 µM.

The compound `O=C1NC(=O)c2cc(NC(=O)N3CC=C(c4ccc(O)cc4)CC3)ccc21` [Compound I-378] yielded an IC50 of 30 to 100 µM.

Another assay concerns the target CRBN-DDB1 (Homo sapiens, UniProt Q96SW2). Description: Fluorescence Polarization (FP) CRBN binding assay, probe TM-493 (FAM-BB-100). The settings on record: CRBN-DDB1, TM-493 probe, 60 min room temperature. How it is done:
Fluorescence Polarization (FP) Assay
Materials: PerkinElmer EnVision 2104 Multilabel Reader, PerkinElmer FITC FP dual emission Label 2100-8060, Corning 384-well microplate #4514, V-CMR-TM-493 (FAM-BB-100), and CRBN-DDB1-180605.
Methods: Dilution buffer (50 mM HEPES-Na pH 7.5, 100 mM NaCl, 2 mM DTT, and 0.005% Tween-20) and compound DMSO dilutions were prepared. 4× compound working solutions were made with 8% DMSO (4×) and 13.8 μL/well of dilution buffer was placed in a new 96-well plate and 1.2 μL/well of above compound DMSO dilutions were added to the wells. 40 nM (4×) TM-493 in dilution buffer was prepared from a 10 μM DMSO stock and 15 μL per well of the TM-493 working solution was transferred into the compound working solution. 160 nM (2×) CRBN-DDB1 working solution was prepared with Dilution Buffer and 10 μL/well were added into a 384-well plate. 10 μL per well of the TM-493/compound mixture were transferred into the 384-well plate. The “positive control” was sample without protein and compound in 2% DMSO. After incubation at room temperature for 60 min, data was collected and read on data on an EnVision with the following setting: Excitation Light (%): 100; Measurement Height: 9.4; G-Factor: 1; Detector Gain 1: 200; Detector Gain 2: 200; Flash Number: 100. Data was processed using GraphPad Prism 7.0
The compound numbers correspond to the compound numbers in Table 1.
A general note: Polarisation of emitted light reports the rotation of a fluorescent probe.
`O=C1Cc2cccc(C(=O)N3CCc4ccccc43)c2C(=O)N1` [Compound I-1, 8-(2,3-Dihydroindole-1-carbonyl)-2,4-dihydroisoquinoline-1,3-dione] gave an IC50 of 10 to 30 µM.

`NC(=O)c1ccccc1-c1cccc2c1C(=O)NC(=O)C2` [Compound I-2, 2-(1,3-Dioxo-2,4-dihydroisoquinolin-8-yl)benzamide] gave an IC50 of 30 to 100 µM.

Compound `O=C1Cc2cccc(C(=O)N3CCOc4ccccc43)c2C(=O)N1` [Compound I-3, 8-(2,3-Dihydro-1,4-benzoxazine-4-carbonyl)-2,4-dihydroisoquinoline-1,3-dione] came in with a 50% inhibitory concentration (IC50) of 30 to 100 µM.

`Cc1ccccc1-c1ccc2c(c1)C(=O)NC(=O)C2` [Compound I-4, 7-(2-Methylphenyl)-2,4-dihydroisoquinoline-1,3-dione] registered an IC50 greater than 100 µM.

For the compound `O=C1Cc2ccccc2C(=O)N1` [Compound I-5, 2,4-Dihydroisoquinoline-1,3-dione], the 50% inhibitory concentration (IC50) fell in the range of 30 to 100 µM.

In turn, `Cc1ncoc1-c1ccc2c(c1)C(=O)NC(=O)C2` [Compound I-6, 7-(4-Methyl-1,3-oxazol-5-yl)-2,4-dihydroisoquinoline-1,3-dione] yielded a 50% inhibitory concentration (IC50) greater than 100 µM.

`O=C1Cc2ccc(Br)cc2C(=O)N1` [Compound I-7, 7-Bromo-2,4-dihydroisoquinoline-1,3-dione] registered an IC50 greater than 100 µM.

Regarding `O=C1Cc2cccc(Br)c2C(=O)N1` [Compound I-8, 8-Bromo-2,4-dihydroisoquinoline-1,3-dione], the IC50 was greater than 100 µM.

`Nc1ccc2c(c1)C(=O)NC(=O)C2` [Compound I-12] had an IC50 of 10 to 30 µM.

For `Cc1ccccc1-c1cccc2c1C(=O)NC(=O)C2` [Compound I-24], the half-inhibitory concentration (IC50) was in the range of 10 to 30 µM.

The compound `Cc1ncoc1-c1cccc2c1C(=O)NC(=O)C2` [Compound I-25] yielded an IC50 greater than 100 µM.

In turn, `O=C1CC2(C(=O)N1)C(=O)Nc1ccccc12` (stereo not shown) [Compound I-176] had an IC50 greater than 100 µM.

`O=C1Cc2cccc(Oc3ccccc3Br)c2C(=O)N1` [Compound I-205] displayed an IC50 of less than 10 µM.

Compound `O=C1Cc2cccc(Oc3ccc(Br)cc3)c2C(=O)N1` [Compound I-206, 8-(4-Bromophenoxy)-2,4-dihydroisoquinoline-1,3-dione] yielded a 50% inhibitory concentration (IC50) of less than 10 µM.

Consider `O=C1Cc2cccc(Oc3cccc(Br)c3)c2C(=O)N1` [Compound I-207], for which the IC50 is less than 10 µM.

The compound `O=C1Cc2cccc(C(=O)N(Cc3ccccc3)Cc3ccccc3)c2C(=O)N1` [Compound I-208] registered an IC50 of 10 to 30 µM.

In the case of `O=C1Cc2cccc(Oc3ccccc3[N+](=O)[O-])c2C(=O)N1` [Compound I-261], the IC50 was 10 to 30 µM.

In turn, `O=C1Cc2cccc(Oc3ccccc3)c2CC(=O)N1` [Compound I-262] gave an IC50 greater than 100 µM.

The compound `Nc1ccccc1Oc1cccc2c1C(=O)NC(=O)C2` [Compound I-263] returned an IC50 of 30 to 100 µM.

In turn, `O=C1Cc2cccc(Oc3cccnc3)c2C(=O)N1` [Compound I-271] showed a half-maximal inhibitory concentration (IC50) of 10 to 30 µM.

The values above are taken from patent publication US20220281831A1, “FUSED-GLUTARIMIDE CRBN LIGANDS AND USES THEREOF” (Kymera Therapeutics, Inc., priority 2019, published 2022).
